{"source": "patent US20260158021A1", "about": "“PREVENTION AND TREATMENT OF ORGAN FIBROSIS” (CORNELL UNIVERSITY, priority 2018, published 2026)", "key": {"[1]": {"system": "smooth muscle actin (SMA)", "assay": "Western blot of smooth muscle actin (SMA) in lung fibroblasts", "format": "cell-based, human", "conditions": "Western blotting"}, "[2]": {"system": "bleomycin-induced pulmonary fibrosis", "assay": "Bleomycin experimental mouse model of pulmonary fibrosis", "format": "in vivo, mice (C57BL/6J)", "excerpt": "FIG. 11A-11B. In Vivo Murine Model of pulmonary fibrosis. […] Representative micrographs of Masson's trichrome-stained lungs from bleomycin-treated mice from the 14d time point. […] FIG. 12. […] Sal=Saline vehicle. FIG. 20A-20E. […] NS=not significant. N=5 mice/group. Scale bar=250 μm. […] Mice were sacrificed on day 21."}, "[3]": {"system": "C-P4H", "assay": "C-P4H abundance in stimulated human fibroblasts (immunofluorescence, Western blot)", "format": "cell-based", "conditions": "for C-P4H immunofluorescence intensity: human fibroblasts exposed to TGF-β or mast cell exosomes", "description": "FIG. 9. Roxadustat inhibits the increase in C-[…] in stimulated human fibroblasts. Immunoexpression of prolyl-4-hydroxylase […]). […] FIG. 19A-19E. […] C. […] Actin was run as the loading control. […] All assays were performed in triplicate."}, "[4]": {"system": "human lung fibroblasts", "assay": "Fibroblast proliferation by total protein content of fibroblast cell lysates", "format": "cell-based", "conditions": "+RXD+TGF-β; control 0.800, +TGF-β 1.138", "description": "(§1) Human lung fibroblasts were exposed to TGF-β (10 ng/ml) or co-cultured with EXO([…]), and supernatants were collected for measurement of newly secreted collagen. […] Cell lysates were used to quantify total protein/well for normalization. Data are means±SEM of three separate experiments (n=3), each point run in triplicate. *P<0.05, ***P<0.001, ***P<0.0001."}, "[5]": {"system": "human lung fibroblasts", "assay": "Collagen secretion by human lung fibroblasts (newly secreted collagen in supernatant, Sircol)", "format": "cell-based", "conditions": "for collagen secretion: RXD, normalized for total protein", "description": "as §1\n(§2) FIG. 19A-19E. […] C. […] Actin was run as the loading control. […] All assays were performed in triplicate.\n(FIG. 3A). All values presented are normalized for total protein."}, "[6]": {"system": "c-P4H tetramer", "assay": "Non-denaturing Western blot of human lung fibroblast homogenates probed for c-P4H α-subunit", "format": "cell-based", "conditions": "RXD 10 mg/ml; alone, +EXO, +TGF-β", "description": "FIG. 4. […] Western blotting on a gradient gel was performed on human lung fibroblast homogenates in non-denaturing conditions and probed with anti-α-subunit monomer (60 kD). Tetramer is found at 240 kD at arrow."}, "[7]": {"system": "UUO kidney", "assay": "Unilateral ureteral obstruction (UUO) model of renal fibrosis, Masson's trichrome collagen staining", "format": "in vivo, Mice C57BL/6J", "description": "All animal treatments and experiments were approved by the Institutional Animal Care and Use Committee of Weill Cornell Medical College. Mice were anesthetized intraperitoneally with a cocktail of ketamine (90 mg/kg) and xylazine (4 mg/kg). Mice C57BL/6J) underwent right unilateral ureteral ligation with 4-0 silk suture through an abdominal midline incision under sterile conditions. Sham-operated control (CON) animals underwent identical operations, however, with manipulation of the right ureter only. Delivery of Roxadustat (10 mg/kg) on days 0, 2, 4, 6, 8, was administered IP. Mice were sacrificed on Day 14.\nKidneys were harvested and fixed in 10% neutral buffered formalin followed by embedding in paraffin. Sections (5 um) were collected and Masson's trichrome staining was performed using a kit (Richard-Allen Scientific) to detect collagen (blue stain). Slides of paraffinized tissue sections were deparaffinized, rehydrated, and washed in distilled water. Sections were subsequently stained using components from the trichrome kit and according to the manufacturer's protocol. After dehydrating and clearing in xylene, the sections were mounted with coverslips in Vectamount (Vector Laboratories). Tissue sections were examined with an inverted epifluorescence microscope (Nikon Eclipse TE 2000-U) interfaced to a SPOT Insight 2 megapixel color camera (Diagnostic Instruments)."}, "[8]": {"system": "human lung fibroblasts", "assay": "Fibroblast migration/accumulation/foci formation in transwell plates", "format": "cell-based", "conditions": "qualitative; +TGF-β (10 ng/ml) +RXD (10 mg/ml)"}, "[9]": {"system": "mast cells (human mastocytoma cells)", "assay": "Mast cell degranulation after high oxygen and recovery in room air (β-hexosaminadase, tryptase release)", "format": "cell-based", "conditions": "72 h; 1 day high oxygen then 2 days room air (HO^rec) +RXD 10 mg/ml", "description": "FIG. 5A-5C. […] C. […] NS=not significant\nMast cell degranulation was assessed by measuring the release of β-hexosaminadase (β-hex), a classic indicator of mast cell degranulation (FIG. 5A) and Tryptase (FIG. 5B). […] This protocol was designed to mimic the clinical protocol of giving IPF patients hospitalized with acute exacerbations high oxygen then followed by return to room air."}, "[10]": {"system": "HLF", "assay": "Proline hydroxylation (LC-MC of extracted proteins) and hydroxyproline content in HLF", "format": "cell-based, human", "description": "as §2"}}}
{"smiles": "Cc1nc(C(=O)NCC(=O)O)c(O)c2ccc(Oc3ccccc3)cc12", "note": "[RXD]", "values": [{"measurement": "SMA abundance", "setting": "[1]", "value": "decreased"}, {"measurement": "severity of fibrosis, Masson's trichrome stained lungs", "setting": "[2]; RXD 10 mg/kg days 7-19 every other day, sacrifice day 21", "value": "lessened the severity of fibrosis"}, {"measurement": "lung hydroxyproline content", "setting": "[2]; RXD 10 mg/kg days 7-19 every other day, sacrifice day 21, P<0.01 Bleo versus Bleo+RXD", "value": "significantly decreased"}, {"measurement": "number of mast cells in vivo in pulmonary fibrosis", "setting": "[2]; bleo vs bleo+RXD, P<0.05", "value": "reduced"}, {"measurement": "lung compliance (pulmonary function tests)", "setting": "[2]; bleomycin-induced decrease", "value": "normalizes the bleomycin-induced decrease in lung compliance"}, {"measurement": "pulmonary fibrosis, Masson's trichrome-stained lungs", "setting": "[2]; bleomycin-treated mice, 14d time point", "value": "reduced"}, {"measurement": "C-P4H abundance in Western blots", "setting": "[3]; HLF lysates +MC-EXO and +TGFβ, actin loading control", "value": "decreased C-P4H abundance"}, {"measurement": "C-P4H immunofluorescence intensity", "setting": "[3]", "value": "inhibited the increase in C-P4H fluorescence intensity"}, {"measurement": "C-P4H immunofluorescence intensity", "setting": "[3]; listed as Roxadustat", "value": "inhibits the increase in C-P4H"}, {"measurement": "total protein content of fibroblast cell lysates (fibroblast proliferation)", "setting": "[4]", "value": 0.828, "unit": "μg/ml/well"}, {"measurement": "secreted collagen (Sircol)", "setting": "[5]; FIG. 19E, HLF untreated and treated with +MC-EXO and +TGF-β", "value": "blocked"}, {"measurement": "collagen secretion", "setting": "[5]; fibroblasts co-cultured with mast cell exosomes (40 g/ml)", "value": "inhibits collagen secretion"}, {"measurement": "collagen secretion", "setting": "[5]; fibroblasts exposed to exogenous TGF-β1 (10 ng/ml)", "value": "inhibits collagen secretion"}, {"measurement": "collagen secretion", "setting": "[5]; untreated fibroblasts", "value": "inhibits collagen secretion"}, {"measurement": "α-subunit monomer abundance (60 kD band)", "setting": "[6]", "value": "increased the α-subunit monomer abundance in all cases"}, {"measurement": "renal fibrosis, collagen staining of UUO kidney cortex and medulla", "setting": "[7]; Roxadustat 10 mg/kg IP days 0, 2, 4, 6, 8, Day 14", "value": "lessened the fibrosis"}, {"measurement": "quantified collagen (blue) staining, UUO kidney cortex and medulla", "setting": "[7]; pixel by pixel, P<0.0001 UUO vs UUO+RXD in cortex and in medulla", "value": "Reduces Fibrosis"}, {"measurement": "quantified collagen staining, control cortex and medulla with and without RXD", "setting": "[7]; sham control kidneys", "value": "no significant difference"}, {"measurement": "fibroblast migration, accumulation, and foci formation", "setting": "[8]", "value": "prevents fibroblast migration, accumulation, and foci formation"}, {"measurement": "mast cell degranulation (β-hexosaminadase and mast cell tryptase in supernatants)", "setting": "[9]", "value": "decreases mast cell degranulation"}, {"measurement": "proline hydroxylation in collagens 1 and 3", "setting": "[10]; LC-MC analysis of HLF extracted proteins", "value": "prevented proline hydroxylation"}, {"measurement": "hydroxyproline in HLFs", "setting": "[10]; TGF-β-induced increase", "value": "inhibited the TGF-β-induced increase in hydroxyproline"}]}
